Earlier results on 1 compound are cited in US20250144118A1, “MIFEPRISTONE ORAL FORM FOR ITS USE IN CERVIX RIPENING AND LABOUR INDUCTION” (NORDIC GROUP B.V., priority 2020, published 2025).

Data set [1] has as its system cervix of pregnant women beyond 41 weeks' gestation. Particulars: 200 mg mifepristone orally, findings not statistically significant.
Data set [2] deals with cervix of women in full-term pregnancy. The note with it: clinical trial.
Data set [3] has as its system cervix of women in term pregnancies. Particulars: 50, 100, 200, 400 and 600 mg of mifepristone; regardless of the dose.

The structures appear in SMILES notation.

Consider `CC#C[C@]1(O)CC[C@H]2[C@@H]3CCC4=CC(=O)CCC4=C3[C@@H](c3ccc(N(C)C)cc3)C[C@@]21C` [mifepristone, Mifepristone], for which the “Bishop score after 24 hours vs. placebo” value in data set [1] is given as “improve the Bishop score after 24 hours vs. placebo”. In addition, in data set [1] (vs. placebo), the use of prostaglandin entry is reported as “reduce the use of prostaglandin”. The “induction of cervical ripening and labour” value in data set [2] was “efficient on inducing cervical ripening and labour”. Besides, the efficiency vs placebo result in data set [3] is “no more effective than placebo”.
